# Measured values: patent US7265130B2, “NPY Y5 antagonist” (Shionogi & Co., Ltd., priority 1999, dated 2007)
# Columns and labels:
# human NPY Y5 receptor [1] = molecular target: T1, human NPY Y5 receptor (Homo sapiens, UniProt Q15761); assay: Affinity for NPY Y5 receptor ([125I] peptide YY binding, CHO cell membranes); details: inhibition of specific [125I] peptide YY binding, membranes of CHO cells expressing NPY Y5 receptor
# T1 construct: expressed in transfected cells
# T1 sequence (Q15761 1-445): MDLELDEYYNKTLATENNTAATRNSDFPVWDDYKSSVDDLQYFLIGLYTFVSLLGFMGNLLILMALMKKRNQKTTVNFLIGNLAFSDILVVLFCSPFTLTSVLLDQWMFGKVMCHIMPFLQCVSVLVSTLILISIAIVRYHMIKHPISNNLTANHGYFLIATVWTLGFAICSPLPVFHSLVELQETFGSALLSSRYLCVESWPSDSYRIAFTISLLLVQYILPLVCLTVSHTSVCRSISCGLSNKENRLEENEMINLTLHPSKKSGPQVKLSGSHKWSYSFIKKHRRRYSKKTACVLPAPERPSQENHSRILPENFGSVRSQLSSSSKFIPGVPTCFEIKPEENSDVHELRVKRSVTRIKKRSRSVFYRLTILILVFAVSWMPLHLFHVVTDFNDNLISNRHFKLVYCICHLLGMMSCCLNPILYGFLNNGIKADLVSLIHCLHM
# Description: Experiment 1 Affinity for NPY Y5 Receptor
# cDNA sequence encoding a human NPY Y5 receptor (WO096/16542) was cloned in the expression vector pME18S (Takebe et al. Mol. Cell. Biol. 8, 8957). The obtained expression vector was transfected into a host CHO cells by using a Lipofect AMINE reagent (Trademark, Gibco BRL Co., Ltd.) according to an instruction protocol to obtain the cells that stably express NPY Y5 receptor.
# The membranes prepared from the above CHO cells expressing NPY Y5 receptor, the compound of the present invention and 30,000 cpm [^125I] peptide YY (60 pM of final concentration: Amersham) were incubated in the assay buffer (20 mM HEPES-Hanks buffer containing 0.1% bovine serum albumin, pH 7.4) at 25° C. for 2 hours, and then the mixture was filtered with a glassfilter GF/C treated with polyethyleneimine. After the glassfilter was washed with 50 mM Tris-HCl buffer (pH 7.4), the radioactivity on the filter was measured with a gamma counter. The non-specific binding was detected in the presence of 200 nM of peptide YY. The 50% inhibitory concentration of the test compound against the specific peptide YY binding (IC50 value) was calculated (Inui, A. et al. Endocrinology 131, 2090-2096 (1992)).
# human NPY Y5 receptor [2] = molecular target: T1, human NPY Y5 receptor; assay: cAMP production inhibitory activity in CHO cells; format: cell-based; details: against 50 nM NPY inhibition of forskolin stimulated cAMP, CHO cells expressing human NPY Y5 receptor
# Protocol: Experiment 2 cAMP production inhibitory activity in CHO cells
# After CHO cells expressing human NPY Y5 receptor were incubated in the presence of 2.5 mM isobutylmethylxanthine (SIGMA) at 37° C. for 20 min., the compound of the present invention was added and incubated for 5 min. Then, 50 nM NPY and 10 μM forskolin (SIGMA) were added to the cells and incubated for 30 min. After the reaction was terminated by adding 1N HCl, the amount of cAMP in the supernatant was measured with EIA kit (Amersham LIFE SCIENCE).
Compound,IC50 (human NPY Y5 receptor [1]) [nM],IC50 (human NPY Y5 receptor [2]) [nM]
"CCCCc1ccc(NC(=O)N2CCC(NS(=O)(=O)C(C)(C)C)CC2)cc1 [Compound I-120, 4-t-butylsulfonylaminopiperidine-1-carboxylic acid(4-butylphenyl)amide]",1.4,4.8
CCCCc1ccc(NC(=O)C23CCC(NS(=O)(=O)C(C)(C)C)(CC2)CC3)cc1 [Compound I-123],1.8,168
CC(C)(C)S(=O)(=O)NC1CCC(C(=O)Nc2cccc(OC(F)(F)C(F)F)c2)CC1 (centres unmarked) [Compound I-126],0.6,13.2
CC(=O)c1ccc(NC(=O)C2CCC(NS(=O)(=O)C(C)(C)C)CC2)cc1 (centres unmarked) [Compound I-127],1.4,30.4
CSc1ccc(NC(=O)C2CCC(NS(=O)(=O)C(C)(C)C)CC2)cc1 (centres unmarked) [Compound I-128],1.3,10.2
CC(C)(C)S(=O)(=O)NC1CCC(C(=O)Nc2cccc3cc4ccccc4cc23)CC1 (centres unmarked) [Compound I-129],2.1,174
CC(C)(C)S(=O)(=O)NC1CCC(C(=O)Nc2ccc(C(C#N)c3ccccc3)c(Cl)c2)CC1 (centres unmarked) [Compound I-130],1.1,42.5
Cn1cc(Br)c(-c2cccc(NC(=O)C3CCC(NS(=O)(=O)C(C)(C)C)CC3)c2)n1 (centres unmarked) [Compound I-131],1.1,34.8
COc1cc2c(cc1NC(=O)C1CCC(NS(=O)(=O)C(C)(C)C)CC1)oc1ccccc12 (centres unmarked) [Compound I-132],2.2,30.4
CCC(C)COC(=O)/C=C/c1ccc(NC(=O)C2CCC(NS(=O)(=O)C(C)(C)C)CC2)cc1 (centres unmarked) [Compound I-133],0.9,21.1
CC(C)(C)S(=O)(=O)NC1CCC(C(=O)Nc2cccc(Oc3ccccc3)c2)CC1 (centres unmarked) [Compound I-134],0.5,10
CC(C)(C)S(=O)(=O)NC1CCC(C(=O)Nc2ccc3c(c2)C(=O)c2ccccc2-3)CC1 (centres unmarked) [Compound I-135],0.7,22
CC(C)(C)S(=O)(=O)NC1CCC(C(=O)Nc2ccc(-c3ccc(C#N)cc3)cc2)CC1 (centres unmarked) [Compound I-137],1.4,68.2
Cc1ccc2cc(NC(=O)C3CCC(NS(=O)(=O)C(C)(C)C)CC3)ccc2n1 (centres unmarked) [Compound I-138],1,18.6
CC(C)(C)S(=O)(=O)NC1CCC(C(=O)Nc2cnc3ccccc3c2)CC1 (centres unmarked) [Compound I-139],0.41,7.6
CC(C)(C)S(=O)(=O)NC1CCC(C(=O)Nc2ccc3ncccc3c2)CC1 (centres unmarked) [Compound I-140],0.48,8.9
COc1ccc(NC(=O)C2CCC(NS(=O)(=O)C(C)(C)C)CC2)c(Sc2ccccc2)n1 (centres unmarked) [Compound I-141],0.42,7.4
CC(C)(C)S(=O)(=O)NC1CCC(C(=O)Nc2nc(-c3cccc4ccccc34)cs2)CC1 (centres unmarked) [Compound I-142],0.49,28
COC(=O)c1scc(NC(=O)C2CCC(NS(=O)(=O)C(C)(C)C)CC2)c1C(=O)OC (centres unmarked) [Compound I-143],3.5,44
CC(C)(C)S(=O)(=O)NC1CCC(C(=O)Nc2cccnc2Oc2ccc(F)cc2F)CC1 (centres unmarked) [Compound I-144],3.4,52
CC(C)(C)S(=O)(=O)NC1CCC(C(=O)Nc2cc(-c3ccco3)[nH]n2)CC1 (centres unmarked) [Compound I-146],2.3,20
COc1ccc(CCNC(=O)C2CCC(NS(=O)(=O)C(C)(C)C)CC2)cc1OC (centres unmarked) [Compound I-147],7.1,63
CCN(CCNC(=O)C1CCC(NS(=O)(=O)C(C)(C)C)CC1)c1ccccc1 (centres unmarked) [Compound I-149],0.83,15
CC(C)(C)S(=O)(=O)NC1CCC(C(=O)NCCSCc2c(Cl)cccc2Cl)CC1 (centres unmarked) [Compound I-150],0.17,5.2
CC(C)(C)S(=O)(=O)NC1CCC(C(=O)NCCSCc2c(F)cccc2Cl)CC1 (centres unmarked) [Compound I-151],0.17,2.6
CSc1sc(C(=O)NNC(=O)C2CCC(NS(=O)(=O)C(C)(C)C)CC2)c2c1C(O)CCC2 (centres unmarked) [Compound I-153],1.7,29

Compound,IC50 (human NPY Y5 receptor [1]) [nM],IC50 (human NPY Y5 receptor [2]) [nM]
CC(C)(C)S(=O)(=O)NC1CCC(C(=O)Nc2ccc3c(c2)CCC3=O)CC1 (centres unmarked) [Compound I-156],0.81,17
CCOc1cccc(NC(=O)C2CCC(NS(=O)(=O)C(C)(C)C)CC2)c1 (centres unmarked) [Compound I-160],0.61,8.8
CCCCOc1cccc(NC(=O)C2CCC(NS(=O)(=O)C(C)(C)C)CC2)c1 (centres unmarked) [Compound I-161],0.49,3.1
COCOc1cccc(NC(=O)C2CCC(NS(=O)(=O)C(C)(C)C)CC2)c1 (centres unmarked) [Compound I-162],1.7,32
CC(C)(C)S(=O)(=O)NC1CCC(C(=O)Nc2cccc(O)c2)CC1 (centres unmarked) [Compound I-163],2.3,83
CCCCOc1ccc(NC(=O)C2CCC(NS(=O)(=O)C(C)(C)C)CC2)cc1 (centres unmarked) [Compound I-164],0.71,5.9
CCCCOc1ccc(NC(=O)C2CCC(NS(=O)(=O)C(C)(C)C)CC2)c(O)c1 (centres unmarked) [Compound I-165],0.44,47
CCCCOc1ccc(NC(=O)C2CCC(NS(=O)(=O)C(C)(C)C)CC2)cc1O (centres unmarked) [Compound I-166],0.37,9.7
CCCCOc1ccc(NC(=O)C2CCC(NS(=O)(=O)C(C)(C)C)CC2)cn1 (centres unmarked) [Compound I-167],0.72,39
CC(C)(C)S(=O)(=O)NC1CCC(C(=O)Nc2ccc(Oc3ccccc3)nc2)CC1 (centres unmarked) [Compound I-168],2.1,32
CCCCOc1ccc(NC(=O)C2CCC(NS(=O)(=O)C(C)(C)C)CC2)c([N+](=O)[O-])c1 (centres unmarked) [Compound I-171],2.4,71
CCCCOc1ccc(NC(=O)C2CCC(NS(=O)(=O)C(C)(C)C)CC2)c(N)c1 (centres unmarked) [Compound I-172],0.91,36
CCCCOc1cccc(CNC(=O)C2CCC(NS(=O)(=O)C(C)(C)C)CC2)c1 (centres unmarked) [Compound I-187],0.58,13
CCCCOc1cccc(CONC(=O)C2CCC(NS(=O)(=O)C(C)(C)C)CC2)c1 (centres unmarked) [Compound I-191],1.1,11
CCOc1ccc(NC(=O)C2CCC(NS(=O)(=O)C(C)(C)C)CC2)cc1OCC (centres unmarked) [Compound I-196],1.4,6.8
CC(=O)c1cccc(NC(=O)C2CCC(NS(=O)(=O)C(C)(C)C)CC2)c1 (centres unmarked) [Compound I-197],6.7,38
CC(C)(C)S(=O)(=O)NC1CCC(C(=O)Nc2ccc3c(c2)CCC3=NO)CC1 (centres unmarked) [Compound I-198],7.2,33
CC(C)(C)S(=O)(=O)NC1CCC(C(=O)Nc2cccc(N3CCOCC3)c2)CC1 (centres unmarked) [Compound I-199],4.8,31
CC(C)(C)S(=O)(=O)NC1CCC(C(=O)Nc2ccc3c(c2)OCCO3)CC1 (centres unmarked) [Compound I-202],6.7,67
CC(C)(C)S(=O)(=O)NC1CCC(C(=O)Nc2ccc(Cc3ccncc3)cc2)CC1 (centres unmarked) [Compound I-206],5.9,54
CC(C)(C)S(=O)(=O)NC1CCC(C(=O)Nc2ccc3ncsc3c2)CC1 (centres unmarked) [Compound I-207],4.6,23
CC(C)(C)S(=O)(=O)NC1CCC(C(=O)Nc2ccc3sccc3c2)CC1 (centres unmarked) [Compound I-210],1.1,13
CC(C)(C)S(=O)(=O)NC1CCC(C(=O)Nc2nnc(-c3ccc(F)cc3)s2)CC1 (centres unmarked) [Compound I-213],0.44,4
C[C@@H]1CN(c2cccc(NC(=O)C3CCC(NS(=O)(=O)C(C)(C)C)CC3)c2)C[C@H](C)O1 (some centres unmarked) [Ia-4],1.4,15
Cc1ccc(NC(=O)C2CCC(NS(=O)(=O)C(C)(C)C)CC2)cc1 (centres unmarked) [Ia-8],2.9,34
CCc1ccc(NC(=O)C2CCC(NS(=O)(=O)C(C)(C)C)CC2)cc1 (centres unmarked) [Ia-9],0.94,11
